Reference: patent publication US9315490B2, “2,5-substituted pyrimidines” (Grünenthal GmbH, priority 2014, dated 2016)

Experiments:
[1] = molecular target: T1, human PDE4B1 (Homo sapiens, UniProt Q07343); test: cAMP HTRF assay to determine the activity of hPDE4B1; assay type: biochemical; conditions: inhibition of PDE4B at a test concentration of 1 μM
T1 construct: host or cells: Sf9 cells
Method in brief: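 Human recombinant PDE4B1 from Sf9 cells (4.8 U) in Tris-HCl, MgCl2, DTT, Tween 20 buffer at pH 7.8 with 40 nM cAMP (final), 30 min at room temperature. Reaction stopped with 1 mM IBMX; remaining cAMP detected by HTRF (665/620 nm ratio). IC50 from eight-concentration curves.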

T1 sequence (Q07343 whole entry): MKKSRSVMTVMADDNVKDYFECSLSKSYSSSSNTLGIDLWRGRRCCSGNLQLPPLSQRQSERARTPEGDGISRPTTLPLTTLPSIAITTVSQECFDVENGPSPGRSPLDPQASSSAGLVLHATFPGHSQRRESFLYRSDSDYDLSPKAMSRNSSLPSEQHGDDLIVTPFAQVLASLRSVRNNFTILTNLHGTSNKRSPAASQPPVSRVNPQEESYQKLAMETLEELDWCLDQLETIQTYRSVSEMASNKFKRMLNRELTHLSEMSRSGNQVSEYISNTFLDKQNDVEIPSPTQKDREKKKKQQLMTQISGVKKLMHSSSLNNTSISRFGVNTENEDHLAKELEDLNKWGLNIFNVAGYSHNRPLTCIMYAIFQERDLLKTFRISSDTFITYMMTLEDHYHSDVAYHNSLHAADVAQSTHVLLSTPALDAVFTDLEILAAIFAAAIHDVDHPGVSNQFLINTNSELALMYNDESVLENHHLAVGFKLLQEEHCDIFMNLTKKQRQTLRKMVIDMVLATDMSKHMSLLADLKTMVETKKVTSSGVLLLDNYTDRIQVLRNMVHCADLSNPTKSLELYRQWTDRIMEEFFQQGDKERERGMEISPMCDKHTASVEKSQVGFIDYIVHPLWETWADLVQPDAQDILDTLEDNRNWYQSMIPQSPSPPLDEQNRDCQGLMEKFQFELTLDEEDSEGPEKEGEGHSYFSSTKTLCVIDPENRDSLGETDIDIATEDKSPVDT

Row | SMILES | inhibition at 1 µM [1] [%] | melting point [°C]
1 | CS(=O)(=O)c1cn(-c2ncc(-c3ccccc3Cl)cn2)c2cc(C(=O)N3CCOCC3)ccc12 [Example 9, (1-(5-(2-Chlorophenyl)pyrimidin-2-yl)-3-(methylsulfonyl)-1H-indol-6-yl)(morpholino)methanone] | 78 | 235 to 239
2 | CS(=O)(=O)c1cn(-c2ncc(-c3ccccc3)cn2)c2cc(C(=O)N3CCOCC3)ccc12 [Example 10, (3-(Methylsulfonyl)-1-(5-phenylpyrimidin-2-yl)-1H-indol-6-yl)(morpholino) methanone] | 74 | 270 to 274
3 | CS(=O)(=O)c1cn(-c2ncc(-c3ccccc3F)cn2)c2cc(C(=O)N3CCOCC3)ccc12 [Example 11, (1-(5-(2-Fluorophenyl)pyrimidin-2-yl)-3-(methylsulfonyl)-1H-indol-6-yl)(morpholino)methanone] | 109 | 267 to 270
4 | C[S+]([O-])c1cn(-c2ncc(-c3ccccc3)cn2)c2cc(C(=O)N3CCNCC3)ccc12 (stereo not shown) [Example 12, (3-(Methylsulfinyl)-1-(5-phenylpyrimidin-2-yl)-1H-indol-6-yl)(piperazin-1-yl)methanone] | 33 | 193 to 197
5 | C[S+]([O-])c1cn(-c2ncc(-c3ccccc3F)cn2)c2cc(C(=O)N3CCNCC3)ccc12 (stereo not shown) [Example 13, (1-(5-(2-Fluorophenyl)pyrimidin-2-yl)-3-(methylsulfinyl)-1H-indol-6-yl)(piperazin-1-yl)methanone] | 51 | 199 to 203
6 | C[S+]([O-])c1cn(-c2ncc(-c3ccc(F)cc3F)cn2)c2cc(C(=O)N3CCNCC3)ccc12 (stereo not shown) [Example 14, (1-(5-(2,4-Difluorophenyl)pyrimidin-2-yl)-3-(methylsulfinyl)-1H-indol-6-yl)(piperazin-1-yl)methanone] | 38 | 198 to 201
7 | C[S+]([O-])c1cn(-c2ncc(-c3cc(C#N)ccc3F)cn2)c2cc(C(=O)N3CCNCC3)ccc12 (stereo not shown) [Example 17, 4-Fluoro-3-(2-(3-(methylsulfinyl)-6-(piperazine-1-carbonyl)-1H-indol-1-yl)pyrimidin-5-yl)benzonitrile] | 41 | 159 to 163
8 | C[S+]([O-])c1cn(-c2ncc(-c3ccc(F)cc3F)cn2)c2cc(C(=O)N3CCOCC3)ccc12 (stereo not shown) [Example 18, (1-(5-(2,4-Difluorophenyl)pyrimidin-2-yl)-3-(methylsulfinyl)-1H-indol-6-yl)(morpholino)methanone] | 91 | 230 to 233
9 | C[S+]([O-])c1cn(-c2ncc(-c3ccc(C(N)=O)cc3F)cn2)c2cc(C(=O)N3CCOCC3)ccc12 (stereo not shown) [Example 19, 3-Fluoro-4-(2-(3-(methylsulfinyl)-6-(morpholine-4-carbonyl)-1H-indol-1-yl)pyrimidin-5-yl)benzamide] | 94 | 202 to 206
10 | C[S+]([O-])c1cn(-c2ncc(-c3ccccc3C#N)cn2)c2cc(C(=O)N3CCOCC3)ccc12 (stereo not shown) [Example 20, 2-(2-(3-(Methylsulfinyl)-6-(morpholine-4-carbonyl)-1H-indol-1-yl)pyrimidin-5-yl)benzonitrile] | 74 | 277 to 281
11 | CS(=O)(=O)c1cn(-c2ncc(-c3ccccc3F)cn2)c2cc(C(=O)N3CCNCC3)ccc12 [Example 24, (1-(5-(2-Fluorophenyl)pyrimidin-2-yl)-3-(methylsulfonyl)-1H-indol-6-yl)(piperazin-1-yl)methanone] | 41 | 206 to 210
12 | CS(=O)(=O)c1cn(-c2ncc(-c3cc(C#N)ccc3F)cn2)c2cc(C(=O)N3CCNCC3)ccc12 [Example 26, 4-Fluoro-3-(2-(3-(methylsulfonyl)-6-(piperazine-1-carbonyl)-1H-indol-1-yl)pyrimidin-5-yl)benzonitrile] | 41 | 279 to 283
13 | O=C(c1ccc2c(CO)cn(-c3ncc(-c4ccccc4F)cn3)c2c1)N1CCOCC1 [Example 27, (1-(5-(2-Fluorophenyl)pyrimidin-2-yl)-3-(hydroxymethyl)-1H-indol-6-yl)(morpholino)methanone] | 79 | 190 to 194
14 | CC[S+]([O-])c1cn(-c2ncc(-c3ccccc3F)cn2)c2cc(C(=O)N3CCOCC3)ccc12 (stereo not shown) [Example 29, (3-(Ethylsulfinyl)-1-(5-(2-fluorophenyl)pyrimidin-2-yl)-1H-indol-6-yl)(morpholino)methanone] | 57 | 122 to 126
15 | COc1ccnc(-c2cnc(-n3cc([S+](C)[O-])c4ccc(C(=O)N5CCOCC5)cc43)nc2)c1 (stereo not shown) [Example 141, (1-(5-(4-Methoxypyridin-2-yl)pyrimidin-2-yl)-3-(methylsulfinyl)-1H-indol-6-yl)(morpholino)methanone] | 115 | 216 to 220
16 | C[S+]([O-])c1cn(-c2ncc(-c3ccnc(O)c3)cn2)c2cc(C(=O)N3CCOCC3)ccc12 (stereo not shown) [Example 143, (1-(5-(2-Hydroxypyridin-4-yl)pyrimidin-2-yl)-3-(methylsulfinyl)-1H-indol-6-yl)(morpholino)methanone] | 65 | 262 to 265

The remaining lines, values ahead:

Row | inhibition at 1 µM [1] [%] | melting point [°C] | SMILES
17 | 47 | 261 to 265 | C[S+]([O-])c1cn(-c2ncc(-c3cccnn3)cn2)c2cc(C(=O)N3CCOCC3)ccc12 (stereo not shown) [Example 144, (3-(Methylsulfinyl)-1-(5-(pyridazin-3-yl)pyrimidin-2-yl)-1H-indol-6-yl)(morpholino)methanone]
18 | 83 | 254 to 257 | C[S+]([O-])c1cn(-c2ncc(-c3cscn3)cn2)c2cc(C(=O)N3CCOCC3)ccc12 (stereo not shown) [Example 145, (3-(Methylsulfinyl)-1-(5-(thiazol-4-yl)pyrimidin-2-yl)-1H-indol-6-yl)(morpholino)methanone]
19 | 118 | 188 to 192 | C[S+]([O-])c1cn(-c2ncc(-c3cc(N)ccc3F)cn2)c2cc(C(=O)N3CCOCC3)ccc12 (stereo not shown) [Example 146, (1-(5-(5-Amino-2-fluorophenyl)pyrimidin-2-yl)-3-(methylsulfinyl)-1H-indol-6-yl)(morpholino)methanone]
20 | 67 | 272 to 276 | C[S+]([O-])c1cn(-c2ncc(-c3cc(O)ccn3)cn2)c2cc(C(=O)N3CCOCC3)ccc12 (stereo not shown) [Example 147, (1-(5-(4-Hydroxypyridin-2-yl)pyrimidin-2-yl)-3-(methylsulfinyl)-1H-indol-6-yl)(morpholino)methanone]
21 | 87 | 249 to 253 | C[S+]([O-])c1cn(-c2ncc(-c3cccc(O)c3)cn2)c2cc(C(=O)N3CCOCC3)ccc12 (stereo not shown) [Example 149, (1-(5-(3-Hydroxyphenyl)pyrimidin-2-yl)-3-(methylsulfinyl)-1H-indol-6-yl)(morpholino)methanone]
22 | 49 | 241 to 244 | C[S+]([O-])c1cn(-c2ncc(-c3ccncc3F)cn2)c2cc(C(=O)N3CCOCC3)ccc12 (stereo not shown) [Example 150, (1-(5-(3-Fluoropyridin-4-yl)pyrimidin-2-yl)-3-(methylsulfinyl)-1H-indol-6-yl)(morpholino)methanone]
23 | 91 | 283 to 287 | Cc1cccc(-c2cnc(-n3cc(S(C)(=O)=O)c4ccc(C(=O)N5CCNC(=O)C5)cc43)nc2)c1 [Example 151, 4-(3-(Methylsulfonyl)-1-(5-(m-tolyl)pyrimidin-2-yl)-1H-indole-6-carbonyl)piperazin-2-one]
24 | 90 | 293 to 295 | COc1ccc(F)c(-c2cnc(-n3cc(S(C)(=O)=O)c4ccc(C(=O)N5CCNC(=O)C5)cc43)nc2)c1 [Example 152, 4-(1-(5-(2-Fluoro-5-methoxyphenyl)pyrimidin-2-yl)-3-(methylsulfonyl)-1H-indole-6-carbonyl)piperazin-2-one]
25 | 76 | 270 to 273 | COc1cccc(-c2cnc(-n3cc(S(C)(=O)=O)c4ccc(C(=O)N5CCNC(=O)C5)cc43)nc2)c1 [Example 153, 4-(1-(5-(3-Methoxyphenyl)pyrimidin-2-yl)-3-(methylsulfonyl)-1H-indole-6-carbonyl)piperazin-2-one]
26 | 46 | 164 to 166 | CO[C@H]1CCN(C(=O)c2ccc3c([S+](C)[O-])cn(-c4ncc(-c5ccccc5F)cn4)c3c2)C1 (stereo partly drawn) [Example 172, (1-(5-(2-Fluorophenyl)pyrimidin-2-yl)-3-(methylsulfinyl)-1H-indol-6-yl)((S)-3-methoxypyrrolidin-1-yl)methanone]
27 | 86 | 116 to 119 | CC(C)(O)c1cn(-c2ncc(-c3ccccc3F)cn2)c2cc(C(=O)N3CCOCC3)ccc12 [Example 184, (1-(5-(2-Fluorophenyl)pyrimidin-2-yl)-3-(2-hydroxypropan-2-yl)-1H-indol-6-yl)(morpholino)methanone]
28 | 74 | 230 to 232 | Cc1cc(-c2cnc(-n3cc([S+](C)[O-])c4ccc(C(=O)N5CCOCC5)cc43)nc2)ccn1 (stereo not shown) [Example 186, (1-(5-(2-Methylpyridin-4-yl)pyrimidin-2-yl)-3-(methylsulfinyl)-1H-indol-6-yl)(morpholino)methanone]
29 | 56 | 285 to 288 | C[S+]([O-])c1cn(-c2ncc(-c3ccnc(F)c3)cn2)c2cc(C(=O)N3CCOCC3)ccc12 (stereo not shown) [Example 187, (1-(5-(2-Fluoropyridin-4-yl)pyrimidin-2-yl)-3-(methylsulfinyl)-1H-indol-6-yl)(morpholino)methanone]
